Tested on: 857933-349-R-J2-PDC complex spheroids, viability
Experiment: Anticancer human tumor 857933-349-R-J2-PDC patient-derived colon adenocarcinoma cell line growth inhibition [GQUAD]
Settings: for IC50: curve of first compound; for viability, T/C: stronger effect = lower value
Procedure, shortened: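 Tumor cells were grown as complex spheroids with HUVEC endothelial cells and mesenchymal stem cells as stroma. G-quadruplex stabilizers were combined with targeted agents over half-log dilutions from near the clinical Cmax, or from 10 microM.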

[1] = second compound 0.0316 µM, first compound 0.0316 µM
[2] = second compound 0.0316 µM, first compound 0.1 µM
[3] = second compound 0.0316 µM, first compound 0.316 µM
[4] = second compound 0.0316 µM, first compound 1 µM
[5] = second compound 0.0316 µM, first compound 3.16 µM
[6] = second compound 0.0316 µM, first compound 10 µM
[7] = second compound 0.1 µM, first compound 0.0316 µM
[8] = second compound 0.1 µM, first compound 0.1 µM
[9] = second compound 0.1 µM, first compound 0.316 µM
[10] = second compound 0.1 µM, first compound 1 µM
[11] = second compound 0.1 µM, first compound 3.16 µM
[12] = second compound 0.1 µM, first compound 10 µM
[13] = second compound 0.316 µM, first compound 0.0316 µM
[14] = second compound 0.316 µM, first compound 0.1 µM
[15] = second compound 0.316 µM, first compound 0.316 µM
[16] = second compound 0.316 µM, first compound 1 µM
[17] = second compound 0.316 µM, first compound 3.16 µM
[18] = second compound 0.316 µM, first compound 10 µM
[19] = second compound 1 µM, first compound 0.0316 µM
[20] = second compound 1 µM, first compound 0.1 µM
[21] = second compound 1 µM, first compound 0.316 µM
[22] = second compound 1 µM, first compound 1 µM
[23] = second compound 1 µM, first compound 3.16 µM
[24] = second compound 1 µM, first compound 10 µM
[25] = second compound 3.16 µM, first compound 0.0316 µM
[26] = second compound 3.16 µM, first compound 0.1 µM
[27] = second compound 3.16 µM, first compound 0.316 µM
[28] = second compound 3.16 µM, first compound 1 µM
[29] = second compound 3.16 µM, first compound 3.16 µM
[30] = second compound 3.16 µM, first compound 10 µM
[31] = second compound 10 µM, first compound 0.0316 µM
[32] = second compound 10 µM, first compound 0.1 µM
[33] = second compound 10 µM, first compound 0.316 µM
[34] = second compound 10 µM, first compound 1 µM
[35] = second compound 10 µM, first compound 3.16 µM
[36] = second compound 10 µM, first compound 10 µM
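Note: spheroids exposed to compounds for one week before readout.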
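Throughout, for viability, T/C: percent viability relative to vehicle DMSO wells taken as 100%.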

Compound: O=C(NO)c1cnc(N2CCN(S(=O)(=O)c3ccc4ccccc4c3)CC2)nc1 + Cc1cnc(CNC(=O)c2c(=O)c3ccc(N4CCCN(C)CC4)nc3n3c2sc2ccccc23)cn1
- IC50 (second compound 0.0316 µM): 0.538 µM
- IC50 (second compound 0.1 µM): 0.372 µM
- IC50 (second compound 0.316 µM): < 0.0316 µM
- IC50 (second compound 1 µM): < 0.0316 µM
- IC50 (second compound 3.16 µM): < 0.0316 µM
- IC50 (second compound 10 µM): < 0.0316 µM
- viability, T/C [1]: 95.5%
- viability, T/C [2]: 79.8%
- viability, T/C [3]: 79.5%
- viability, T/C [4]: 15.9%
- viability, T/C [5]: 0.04%
- viability, T/C [6]: 0.06%
- viability, T/C [7]: 65%
- viability, T/C [8]: 69.3%
- viability, T/C [9]: 56%
- viability, T/C [10]: 11.7%
- viability, T/C [11]: 0.05%
- viability, T/C [12]: 0.08%
- viability, T/C [13]: 19.9%
- viability, T/C [14]: 24.9%
- viability, T/C [15]: 24.2%
- viability, T/C [16]: 1.65%
- viability, T/C [17]: 0.03%
- viability, T/C [18]: 0.07%
- viability, T/C [19]: 4.31%
- viability, T/C [20]: 2.8%
- viability, T/C [21]: 1.46%
- viability, T/C [22]: 0.09%
- viability, T/C [23]: 0.04%
- viability, T/C [24]: 0.07%
- viability, T/C [25]: 1.32%
- viability, T/C [26]: 0.92%
- viability, T/C [27]: 0.23%
- viability, T/C [28]: 0.12%
- viability, T/C [29]: 0.08%
- viability, T/C [30]: 0.09%
- viability, T/C [31]: 0.16%
- viability, T/C [32]: 0.2%
- viability, T/C [33]: 0.2%
- viability, T/C [34]: 0.14%
- viability, T/C [35]: 0.15%
- viability, T/C [36]: 0.18%

Compound: C=CCn1c(=O)c2cnc(Nc3ccc(N4CCN(C)CC4)cc3)nc2n1-c1cccc(C(C)(C)O)n1 + Cc1[nH]c2ccc(F)cc2c1-c1nc2c3cccnc3c3ncccc3c2[nH]1
- IC50 (second compound 0.0316 µM): 1.93 µM
- IC50 (second compound 0.1 µM): 1.92 µM
- IC50 (second compound 0.316 µM): 1.47 µM
- IC50 (second compound 1 µM): 1.57 µM
- IC50 (second compound 3.16 µM): 0.96 µM
- IC50 (second compound 10 µM): 1.39 µM
- viability, T/C [1]: 107%
- viability, T/C [2]: 99.1%
- viability, T/C [3]: 94.5%
- viability, T/C [4]: 77%
- viability, T/C [5]: 28.8%
- viability, T/C [6]: 27.8%
- viability, T/C [7]: 105%
- viability, T/C [8]: 104%
- viability, T/C [9]: 97.2%
- viability, T/C [10]: 81.5%
- viability, T/C [11]: 25.4%
- viability, T/C [12]: 24%
- viability, T/C [13]: 107%
- viability, T/C [14]: 98.1%
- viability, T/C [15]: 94%
- viability, T/C [16]: 62.7%
- viability, T/C [17]: 24.2%
- viability, T/C [18]: 26%
- viability, T/C [19]: 98.5%
- viability, T/C [20]: 86.1%
- viability, T/C [21]: 86%
- viability, T/C [22]: 63.4%
- viability, T/C [23]: 29.6%
- viability, T/C [24]: 23.9%
- viability, T/C [25]: 94.8%
- viability, T/C [26]: 76%
- viability, T/C [27]: 78.1%
- viability, T/C [28]: 48.7%
- viability, T/C [29]: 27.8%
- viability, T/C [30]: 24.5%
- viability, T/C [31]: 86.1%
- viability, T/C [32]: 77.8%
- viability, T/C [33]: 75.3%
- viability, T/C [34]: 58.7%
- viability, T/C [35]: 30%
- viability, T/C [36]: 24.9%

Compound: COc1ccc([C@@H](O)c2cc(-c3ncnc4cc(N5CCOCC5)ccc34)c(F)cc2Cl)nn1 + Cc1cnc(CNC(=O)c2c(=O)c3ccc(N4CCCN(C)CC4)nc3n3c2sc2ccccc23)cn1
- IC50 (second compound 0.0316 µM): 0.712 µM
- IC50 (second compound 0.1 µM): 0.179 µM
- IC50 (second compound 0.316 µM): < 0.0316 µM
- IC50 (second compound 1 µM): < 0.0316 µM
- IC50 (second compound 3.16 µM): < 0.0316 µM
- IC50 (second compound 10 µM): < 0.0316 µM
- viability, T/C [1]: 95.5%
- viability, T/C [2]: 81.5%
- viability, T/C [3]: 58%
- viability, T/C [4]: 47.1%
- viability, T/C [5]: 43%
- viability, T/C [6]: 38%
- viability, T/C [7]: 59.5%
- viability, T/C [8]: 59.5%
- viability, T/C [9]: 40.9%
- viability, T/C [10]: 25.9%
- viability, T/C [11]: 23.2%
- viability, T/C [12]: 26.5%
- viability, T/C [13]: 26.5%
- viability, T/C [14]: 26.6%
- viability, T/C [15]: 14.2%
- viability, T/C [16]: 3.09%
- viability, T/C [17]: 2.64%
- viability, T/C [18]: 2.37%
- viability, T/C [19]: 4.74%
- viability, T/C [20]: 3.32%
- viability, T/C [21]: 3.45%
- viability, T/C [22]: 2.29%
- viability, T/C [23]: 1.33%
- viability, T/C [24]: 1.08%
- viability, T/C [25]: 2.27%
- viability, T/C [26]: 2.54%
- viability, T/C [27]: 2.01%
- viability, T/C [28]: 1.72%
- viability, T/C [29]: 1.23%
- viability, T/C [30]: 0.95%
- viability, T/C [31]: 1.48%
- viability, T/C [32]: 2.1%
- viability, T/C [33]: 0.71%
- viability, T/C [34]: 1.8%
- viability, T/C [35]: 0.73%
- viability, T/C [36]: 0.29%

Compound: C=CCn1c(=O)c2cnc(Nc3ccc(N4CCN(C)CC4)cc3)nc2n1-c1cccc(C(C)(C)O)n1 + CN(C)c1ccc(Nc2c3ccc(NC(=O)CCN4CCCC4)cc3nc3cc(NC(=O)CCN4CCCC4)ccc23)cc1
- IC50 (second compound 0.0316 µM): 1.84 µM
- IC50 (second compound 0.1 µM): 1.65 µM
- IC50 (second compound 0.316 µM): 1.51 µM
- IC50 (second compound 1 µM): 1.57 µM
- IC50 (second compound 3.16 µM): 1.19 µM
- IC50 (second compound 10 µM): 0.756 µM
- viability, T/C [1]: 102%
- viability, T/C [2]: 102%
- viability, T/C [3]: 96.6%
- viability, T/C [4]: 75.7%
- viability, T/C [5]: 26.1%
- viability, T/C [6]: 27.9%
- viability, T/C [7]: 101%
- viability, T/C [8]: 99.4%
- viability, T/C [9]: 99.2%
- viability, T/C [10]: 68.6%
- viability, T/C [11]: 24.3%
- viability, T/C [12]: 27.3%
- viability, T/C [13]: 97.7%
- viability, T/C [14]: 95.3%
- viability, T/C [15]: 101%
- viability, T/C [16]: 63.1%
- viability, T/C [17]: 28.4%
- viability, T/C [18]: 24.9%
- viability, T/C [19]: 94.3%
- viability, T/C [20]: 81.6%
- viability, T/C [21]: 87.8%
- viability, T/C [22]: 60.8%
- viability, T/C [23]: 32.5%
- viability, T/C [24]: 33.8%
- viability, T/C [25]: 88%
- viability, T/C [26]: 73.5%
- viability, T/C [27]: 75.5%
- viability, T/C [28]: 53.5%
- viability, T/C [29]: 31.8%
- viability, T/C [30]: 28.6%
- viability, T/C [31]: 62.1%
- viability, T/C [32]: 62.6%
- viability, T/C [33]: 57.6%
- viability, T/C [34]: 47.7%
- viability, T/C [35]: 32.2%
- viability, T/C [36]: 25.2%

Source: PubChem BioAssay AID2060491 (Molecular Pharmacology Branch, DTP, NCI, 2025)
